{"source": "PubChem BioAssay (NCI)", "test_in_all_cases": "NCI anticancer screen, dose series, 48 h", "key": {"EKVX NSCLC": {"tested_on": "EKVX NSCLC"}, "SK-MEL-2 melanoma": {"tested_on": "SK-MEL-2 melanoma"}, "MALME-3M melanoma": {"tested_on": "MALME-3M melanoma"}, "NCI-H522 lung": {"tested_on": "NCI-H522 lung"}, "HOP-92 NSCLC": {"tested_on": "HOP-92 NSCLC"}, "SF-268 CNS": {"tested_on": "SF-268 CNS"}, "NCI/ADR-RES ovarian": {"tested_on": "NCI/ADR-RES ovarian"}, "BT-549 breast": {"tested_on": "BT-549 breast"}, "UACC-257 melanoma": {"tested_on": "UACC-257 melanoma"}, "786-0 renal": {"tested_on": "786-0 renal"}, "CAKI-1 renal": {"tested_on": "CAKI-1 renal"}, "DU-145 prostate": {"tested_on": "DU-145 prostate"}, "KM12 colon": {"tested_on": "KM12 colon"}, "RXF 393 renal": {"tested_on": "RXF 393 renal"}, "HS 578T breast": {"tested_on": "HS 578T breast"}, "SK-OV-3 ovarian": {"tested_on": "SK-OV-3 ovarian"}, "SR leukemia": {"tested_on": "SR leukemia"}, "HCC-2998 colon": {"tested_on": "HCC-2998 colon"}, "T-47D breast": {"tested_on": "T-47D breast"}, "UO-31 renal": {"tested_on": "UO-31 renal"}, "A498 renal": {"tested_on": "A498 renal"}, "HL-60(TB) leukemia": {"tested_on": "HL-60(TB) leukemia"}, "SN12C renal": {"tested_on": "SN12C renal"}, "A549 NSCLC": {"tested_on": "A549 NSCLC"}, "SK-MEL-28 melanoma": {"tested_on": "SK-MEL-28 melanoma"}, "CCRF-CEM leukemia": {"tested_on": "CCRF-CEM leukemia"}, "M14 melanoma": {"tested_on": "M14 melanoma"}, "IGROV1 ovarian": {"tested_on": "IGROV1 ovarian"}, "MDA-MB-435": {"tested_on": "MDA-MB-435"}, "HT29 colon": {"tested_on": "HT29 colon"}, "MDA-MB-468 breast": {"tested_on": "MDA-MB-468 breast"}, "SNB-19 CNS": {"tested_on": "SNB-19 CNS"}, "OVCAR-8 ovarian": {"tested_on": "OVCAR-8 ovarian"}, "MDA-MB-231 breast": {"tested_on": "MDA-MB-231 breast"}, "SF-539 CNS": {"tested_on": "SF-539 CNS"}, "PC-3 prostate": {"tested_on": "PC-3 prostate"}, "UACC-62 melanoma": {"tested_on": "UACC-62 melanoma"}, "SK-MEL-5 melanoma": {"tested_on": "SK-MEL-5 melanoma"}, "SNB-75 CNS": {"tested_on": "SNB-75 CNS"}, "TK-10 renal": {"tested_on": "TK-10 renal"}, "NCI-H226 lung": {"tested_on": "NCI-H226 lung"}, "OVCAR-4 ovarian": {"tested_on": "OVCAR-4 ovarian"}, "RPMI-8226 leukemia": {"tested_on": "RPMI-8226 leukemia"}, "K-562 leukemia": {"tested_on": "K-562 leukemia"}, "OVCAR-5 ovarian": {"tested_on": "OVCAR-5 ovarian"}}, "note": "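48-hour exposure; five concentrations; linearly interpolated endpoints. Abbreviation: GI50, concentration required for 50% inhibition of growth. TGI is the concentration that stops growth completely.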", "data": [{"smiles": "Cn1cc(-c2cc(N)n3nc(-c4c[nH]c5ccccc45)cc3n2)c2cc(Br)ccc21", "values": [{"measurement": "GI50", "setting": "EKVX NSCLC", "value": 1830, "unit": "nM"}, {"measurement": "TGI", "setting": "EKVX NSCLC", "value": 4.37, "unit": "µM"}, {"measurement": "GI50", "setting": "SK-MEL-2 melanoma", "value": 1880, "unit": "nM"}, {"measurement": "TGI", "setting": "SK-MEL-2 melanoma", "value": 4.27, "unit": "µM"}, {"measurement": "GI50", "setting": "MALME-3M melanoma", "value": 1870, "unit": "nM"}, {"measurement": "TGI", "setting": "MALME-3M melanoma", "value": 3.31, "unit": "µM"}, {"measurement": "GI50", "setting": "NCI-H522 lung", "value": 1650, "unit": "nM"}, {"measurement": "TGI", "setting": "NCI-H522 lung", "value": 3.34, "unit": "µM"}, {"measurement": "GI50", "setting": "HOP-92 NSCLC", "value": 2250, "unit": "nM"}, {"measurement": "TGI", "setting": "HOP-92 NSCLC", "value": 5.54, "unit": "µM"}, {"measurement": "GI50", "setting": "SF-268 CNS", "value": 2130, "unit": "nM"}, {"measurement": "TGI", "setting": "SF-268 CNS", "value": 5.87, "unit": "µM"}, {"measurement": "GI50", "setting": "NCI/ADR-RES ovarian", "value": 2220, "unit": "nM"}, {"measurement": "TGI", "setting": "NCI/ADR-RES ovarian", "value": 5.09, "unit": "µM"}, {"measurement": "GI50", "setting": "BT-549 breast", "value": 14.1, "unit": "µM"}, {"measurement": "TGI", "setting": "BT-549 breast", "value": 44.6, "unit": "µM"}, {"measurement": "GI50", "setting": "UACC-257 melanoma", "value": 1950, "unit": "nM"}, {"measurement": "TGI", "setting": "UACC-257 melanoma", "value": 4.31, "unit": "µM"}, {"measurement": "GI50", "setting": "786-0 renal", "value": 1880, "unit": "nM"}, {"measurement": "TGI", "setting": "786-0 renal", "value": 4.1, "unit": "µM"}, {"measurement": "GI50", "setting": "CAKI-1 renal", "value": 1580, "unit": "nM"}, {"measurement": "TGI", "setting": "CAKI-1 renal", "value": 3.16, "unit": "µM"}, {"measurement": "GI50", "setting": "DU-145 prostate", "value": 3.33, "unit": "µM"}, {"measurement": "TGI", "setting": "DU-145 prostate", "value": 12.3, "unit": "µM"}, {"measurement": "GI50", "setting": "KM12 colon", "value": 1940, "unit": "nM"}, {"measurement": "TGI", "setting": "KM12 colon", "value": 4.09, "unit": "µM"}, {"measurement": "GI50", "setting": "RXF 393 renal", "value": 1850, "unit": "nM"}, {"measurement": "TGI", "setting": "RXF 393 renal", "value": 4.65, "unit": "µM"}, {"measurement": "GI50", "setting": "HS 578T breast", "value": 2560, "unit": "nM"}, {"measurement": "TGI", "setting": "HS 578T breast", "value": 9.25, "unit": "µM"}, {"measurement": "GI50", "setting": "SK-OV-3 ovarian", "value": 6.31, "unit": "µM"}, {"measurement": "TGI", "setting": "SK-OV-3 ovarian", "value": "> 100", "unit": "µM"}, {"measurement": "GI50", "setting": "SR leukemia", "value": 5.95, "unit": "µM"}, {"measurement": "TGI", "setting": "SR leukemia", "value": "> 100", "unit": "µM"}, {"measurement": "GI50", "setting": "HCC-2998 colon", "value": 1780, "unit": "nM"}, {"measurement": "TGI", "setting": "HCC-2998 colon", "value": 3.39, "unit": "µM"}, {"measurement": "GI50", "setting": "T-47D breast", "value": 1970, "unit": "nM"}, {"measurement": "TGI", "setting": "T-47D breast", "value": 4.72, "unit": "µM"}, {"measurement": "GI50", "setting": "UO-31 renal", "value": 1710, "unit": "nM"}, {"measurement": "TGI", "setting": "UO-31 renal", "value": 3.53, "unit": "µM"}, {"measurement": "GI50", "setting": "A498 renal", "value": 2060, "unit": "nM"}, {"measurement": "TGI", "setting": "A498 renal", "value": 7.26, "unit": "µM"}, {"measurement": "GI50", "setting": "HL-60(TB) leukemia", "value": 2860, "unit": "nM"}, {"measurement": "TGI", "setting": "HL-60(TB) leukemia", "value": 9.81, "unit": "µM"}, {"measurement": "GI50", "setting": "SN12C renal", "value": 1910, "unit": "nM"}, {"measurement": "TGI", "setting": "SN12C renal", "value": 3.87, "unit": "µM"}, {"measurement": "GI50", "setting": "A549 NSCLC", "value": 1910, "unit": "nM"}, {"measurement": "TGI", "setting": "A549 NSCLC", "value": 5.18, "unit": "µM"}, {"measurement": "GI50", "setting": "SK-MEL-28 melanoma", "value": 1850, "unit": "nM"}, {"measurement": "TGI", "setting": "SK-MEL-28 melanoma", "value": 3.52, "unit": "µM"}, {"measurement": "GI50", "setting": "CCRF-CEM leukemia", "value": 2240, "unit": "nM"}, {"measurement": "TGI", "setting": "CCRF-CEM leukemia", "value": 6.75, "unit": "µM"}, {"measurement": "GI50", "setting": "M14 melanoma", "value": 1790, "unit": "nM"}, {"measurement": "TGI", "setting": "M14 melanoma", "value": 4.09, "unit": "µM"}, {"measurement": "GI50", "setting": "IGROV1 ovarian", "value": 1990, "unit": "nM"}, {"measurement": "TGI", "setting": "IGROV1 ovarian", "value": 4.52, "unit": "µM"}, {"measurement": "GI50", "setting": "MDA-MB-435", "value": 2070, "unit": "nM"}, {"measurement": "TGI", "setting": "MDA-MB-435", "value": 4.65, "unit": "µM"}, {"measurement": "GI50", "setting": "HT29 colon", "value": 1770, "unit": "nM"}, {"measurement": "TGI", "setting": "HT29 colon", "value": 3.62, "unit": "µM"}, {"measurement": "GI50", "setting": "MDA-MB-468 breast", "value": 1560, "unit": "nM"}, {"measurement": "TGI", "setting": "MDA-MB-468 breast", "value": 3.04, "unit": "µM"}, {"measurement": "GI50", "setting": "SNB-19 CNS", "value": 2020, "unit": "nM"}, {"measurement": "TGI", "setting": "SNB-19 CNS", "value": 4.39, "unit": "µM"}, {"measurement": "GI50", "setting": "OVCAR-8 ovarian", "value": 2840, "unit": "nM"}, {"measurement": "TGI", "setting": "OVCAR-8 ovarian", "value": 8.51, "unit": "µM"}, {"measurement": "GI50", "setting": "MDA-MB-231 breast", "value": 1910, "unit": "nM"}, {"measurement": "TGI", "setting": "MDA-MB-231 breast", "value": 3.5, "unit": "µM"}, {"measurement": "GI50", "setting": "SF-539 CNS", "value": 1750, "unit": "nM"}, {"measurement": "TGI", "setting": "SF-539 CNS", "value": 3.22, "unit": "µM"}, {"measurement": "GI50", "setting": "PC-3 prostate", "value": 2090, "unit": "nM"}, {"measurement": "TGI", "setting": "PC-3 prostate", "value": 5.36, "unit": "µM"}, {"measurement": "GI50", "setting": "UACC-62 melanoma", "value": 1650, "unit": "nM"}, {"measurement": "TGI", "setting": "UACC-62 melanoma", "value": 3.28, "unit": "µM"}, {"measurement": "GI50", "setting": "SK-MEL-5 melanoma", "value": 1920, "unit": "nM"}, {"measurement": "TGI", "setting": "SK-MEL-5 melanoma", "value": 3.82, "unit": "µM"}, {"measurement": "GI50", "setting": "SNB-75 CNS", "value": 2050, "unit": "nM"}, {"measurement": "TGI", "setting": "SNB-75 CNS", "value": 9.74, "unit": "µM"}, {"measurement": "GI50", "setting": "TK-10 renal", "value": 2080, "unit": "nM"}, {"measurement": "TGI", "setting": "TK-10 renal", "value": 5.53, "unit": "µM"}, {"measurement": "GI50", "setting": "NCI-H226 lung", "value": 4.76, "unit": "µM"}, {"measurement": "TGI", "setting": "NCI-H226 lung", "value": 42.9, "unit": "µM"}, {"measurement": "GI50", "setting": "OVCAR-4 ovarian", "value": 3.06, "unit": "µM"}, {"measurement": "TGI", "setting": "OVCAR-4 ovarian", "value": 11.2, "unit": "µM"}, {"measurement": "GI50", "setting": "RPMI-8226 leukemia", "value": 2980, "unit": "nM"}, {"measurement": "TGI", "setting": "RPMI-8226 leukemia", "value": 9.57, "unit": "µM"}, {"measurement": "GI50", "setting": "K-562 leukemia", "value": 3.44, "unit": "µM"}, {"measurement": "TGI", "setting": "K-562 leukemia", "value": "> 100", "unit": "µM"}, {"measurement": "GI50", "setting": "OVCAR-5 ovarian", "value": 1910, "unit": "nM"}, {"measurement": "TGI", "setting": "OVCAR-5 ovarian", "value": 3.93, "unit": "µM"}]}]}
